Reference: patent publication US10118922B2 (Janssen Pharmaceutica NV, priority 2013, dated 2018)

Tests used:
[1] = target: T1, short form of the GPR120 receptor (Homo sapiens, UniProt Q5NUL3); experiment: Human GPR120 DiscoveRx PathHunter beta-arrestin assay, Procedure β-arrestin B; format: cell-based; conditions: PathHunter CHO-K1 GPR120S β-Arrestin cells, 5000 cells/well; read-out: hGPR120 β-arrestin B EC50
T1 construct: host or cells: PathHunter CHO-K1 GPR120S β-Arrestin Cell Line
T1 sequence (Q5NUL3 1-361): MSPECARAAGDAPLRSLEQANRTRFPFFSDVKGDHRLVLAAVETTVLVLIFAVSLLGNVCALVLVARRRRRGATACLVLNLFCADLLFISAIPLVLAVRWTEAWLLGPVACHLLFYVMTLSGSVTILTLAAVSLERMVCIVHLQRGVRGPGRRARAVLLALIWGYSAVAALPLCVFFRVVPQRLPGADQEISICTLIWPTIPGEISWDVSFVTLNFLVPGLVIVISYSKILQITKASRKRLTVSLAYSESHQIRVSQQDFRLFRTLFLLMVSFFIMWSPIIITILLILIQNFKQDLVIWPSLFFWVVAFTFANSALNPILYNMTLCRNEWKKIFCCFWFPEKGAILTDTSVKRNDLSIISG
Description: The binding of an agonist (medium/long chain fatty acids or small molecule agonists) to the G-protein-coupled receptor GPR120 activates phospholipase C, leading to release of intracellular Ca^+2 through the generation of inositol 1,4,5-trisphosphate (InsP3 or IP3). GPR120 activation can also trigger intracellular signaling via recruitment of Beta-Arrestin. In the present method, agonist-induced activation of the human GPR120 receptor is monitored through the use of PathHunter CHO-K1 GPR120 Beta-Arrestin Cell Line engineered by DiscoveRx, as detailed below. The cell lines are designed to co-express both the ProLink/Enzyme Donor (PK)-tagged GPCR and the Enzyme […] (EA)-tagged Beta-Arrestin fusion proteins. Upon GPR120 receptor stimulation/activation, the EA-tagged Beta-Arrestin portion is translocated to the tagged receptor, where the two enzyme fragments are brought within close proximity. Under these conditions, these fragments can interact and form an active Beta-gal enzyme complex through Enzyme Fragment Complementation (EFC). This active Beta-gal complex can enzymatically hydrolyse the substrate to produce a detectable light signal; therefore, activation as a function of agonist concentration can be expressed as an EC50 value to determine relative compound activities. This in vitro assay therefore serves to assess compound agonist activity of the GPR120.
In Procedure β-arrestin B the cells used were PathHunter CHO-K1 GPR120S β-Arrestin Cell Line, expressing the short form of the GPR120 receptor (Accession #NM 181745), with 5000 cells/well.
The selected CHO-K1 GPR120 β-Arrestin cells were cultured in Ham's F12 media supplemented with 10% fetal bovine serum (FBS), 1% Glutamine, 1×p/s, 800 μg/mL G418 and 300 μg/mL Hygromycin B (for selection). Cell stocks were maintained and grown in a sub-confluent state using standard cell culture procedures. The day before the experiment, the cells were harvested with non-enzymatic cell dissociation buffer and re-suspended in complete growth media at the desired concentration. A Corning 384-plate was then seeded with the proper number of cells in a volume of 25 μL, per well. The seeded plates were incubated overnight at 37° C.
On the day of the experiment, the Assay Buffer containing (a) HBSS with Ca^++ and Mg^++, (b) 20 mM HEPES, and (c) 0.1% BSA stabilizer (pH 7.4) was prepared. The growth medium was gently removed from the cell plates and 20 μL of Assay Buffer added to each well. The plate was then incubated at 37° C. for 60 min. Test compounds were serially diluted in Assay Buffer to desired concentrations (more particularly to one or more of the following μM concentrations: 25, 12.5, 6.25, 3.125, 1.5625, 0.78125, 0.390625, 0.1953125, 0.09765625, 0.048828125, 0.024414063, 0.012207031). Five μL of compound dilution was then added to each well and the plate incubated at 37° C. for 90 min. The detection reagents were prepared according to the manufacture's instruction. Twelve μL of the detection reagents were added to each well and the plate incubated at room temperature for 60 min.
The plates were read on an EnVision instrument, using Protocol name: Luminescence, Plate type: 384 Costar, Measurement height: 3 mm, Measurement time: 1 s, Aperture: 384 Plate aperture. The % activity relative to the positive control was calculated using the following equation:
The % Activity values were plotted versus the concentration of test compound and fitted to a sigmoidal dose-response curve with a Hill slope=1 (fixed value) using nonlinear regression with GraphPad Prism 5.0 to calculate the EC50 values. The Fitting Equation was: Y=Bottom+(Top-Bottom)/(1+10^((Log EC50−X)*HillSlope)), where X is the log of the concentration and Y is the response.

Human GPR120 short form = target: T2, Human GPR120 short form (Homo sapiens, UniProt Q5NUL3); experiment: Human GPR120 calcium flux assay, Procedure Calcium A; format: cell-based; conditions: HEK-293 cells, FLIPR, 2500 cells/well; read-out: GPR120 Ca2+ Assay A EC50
T2 construct: expressed in transfected cells
T2 sequence (Q5NUL3 1-361): T1 sequence (Q5NUL3 1-361)
Description: These cells are first loaded with the Ca^+2 sensitive dye, Fluo-4 NR. Upon stimulation, intracellular released Ca^+2 can bind to the dye and alter its fluorescence intensity. This increase in fluorescence signal, and thus the flux in intracellular [Ca^2+], is detected and quantitated by fluorescence imaging using a FLIPR reader. The effect of the agonist is measured as a function of concentration and used to calculate an EC50 based upon a response curve.
In this procedure 2500 cells/well were employed.
A Human GPR120 clone (Genbank accession number NM_001195755.1) was placed into the pcDNA3.1 mammalian expression vector carrying the neomycin resistance gene. A stable mammalian cell was generated by placing the above clone into a HEK293 background. […] Cells were split 2 times a week to keep the cells in the log-phase growth.
In preparation for the assay, HEK cells stably transfected with Human GPR120 (2.5K cells per well in 25 uL growth medium) were seeded into 384-well plates and then incubated overnight (37° C., 5% CO2). The next day, the media was changed to 20 μL assay buffer and the cell starved for 1 h at 37° C. The dye loading solution (2× dye) was prepared using 10 mL assay buffer, 100 μL of 250 mM probenecid, 1 bottle of Component A, and 20 μl of dye in DMSO. Twenty μL of the 2× dye loading buffer was then added to each well. The plates were incubated at 37° C. for 30 min, then at room temperature for an additional 15 minutes, before performing the assay on FLIPR.
The assay was performed on a FLIPR plate reader using the following parameters. Baseline was read for 10 seconds at 1 sec intervals. The program was set to transfer 10 μL of ligand from compound plate to cell plate after baseline reading. Aspiration was executed at: 10 μL/sec speed, 4.6 μL height; Dispensing was executed at: 30 μL/sec speed, 45 μL height. After compound addition, each well was read for 300 sec, with measurements collected at 1 sec intervals.
The kinetic data from the FLIPR was based upon a 5 minute window for data collection. The fluorescence of each sample well was used for individual calculations of a normalized RFU value, which was defined as maximum response minus the minimum response. […] The Fitting Equation was: Y=Bottom+(Top-Bottom)/(1+10^((Log EC50−X)*HillSlope)), where X is the log of the concentration and Y is the response.

C57b16 mouse = C57b16 mouse OGTT; format: in vivo; conditions: dosed 30 min prior to glucose PO 3 g/kg
Description: (§1) Male, C57bl/6J Mice were ordered in at 8 weeks of age from Jackson Labs. Individual mice weighed anywhere in the range of 25-30 grams on study day. The mice were fasted, with removal of food occurring at 7 am on the morning of the study. Animals were moved into the room at 10:00 am, to give them time to acclimate. Glucose (insulin syringes) was drawn up either the night before or the morning of the study. Glucose was dosed (IP) at 1.5 g/kg at 7.5 ml/kg (20% glucose straight TEKNOVA, 250 ml sterile bottle w/ catalogue number G0525). Test compounds were kept spinning and were only drawn into the syringes prior to study commencement. Animals were bled via tail snip to determine basal glucose levels prior to dosing of treatments. An Ascensia BREEZE Blood Glucose Monitoring System by Bayer (using unique 10-test disks) was used for determining glucose levels. The bleeds started at approximately 12:45 pm and dosing started, at 1-minute intervals, immediately after. All groups were dosed 30 minutes prior to glucose administration at a dose volume of 10 ml/kg (the dose volume was calculated separately for each individual animal). Thirty minutes after the first dose animals were bled again for a second baseline, or T=0, and immediately dosed with glucose via an i.p. injection. The exact dose volume for glucose was also calculated separately for each individual animal. Glucose measurements were taken at −30 min prior to compound dose, at t=0 (immediately prior to glucose dose), and at 15, 30, 45, 60, 90 min post glucose dose.
(§2) Glucose values were entered into an Excel sheet and graphed in GraphPad Prism. The following were calculated from Prism: Change from −30 to 0 BSLN Glucose, Raw Glucose AUC −30 to 90 min, Delta Glucose AUC −30 to 90 min, Raw Glucose AUC 0 to 90 min, Delta Glucose AUC 0 to 90 min.
The assay design is the same as that described above for the C57b16 mouse IPGTT. The difference is that glucose was dosed PO at 3 g/kg, 7.5 ml/kg of 40% glucose.

C57bl/6J Mice = experiment: GPR120 C57bl6 mouse IPGTT; format: in vivo; conditions: dosed 30 min prior to glucose IP 1.5 g/kg
Description: as §1, §2

With O=C(O)CCc1ccc(OCc2c(C(F)(F)F)nsc2-c2ccc(Cl)cc2)c(Cl)c1Cl [Cpd 181, 3-(2,3-Dichloro-4-{[5-(4-chlorophenyl)-3-(trifluoromethyl)isothiazol-4-yl]methoxy}phenyl)propanoic acid] the EC50 [1] was 819 nM and the EC50 (Human GPR120 short form) was 274 nM.
OCCCc1ccc(OCc2c(Cl)nsc2-c2ccc(Cl)cc2)c(F)c1F [Cpd 102, 3-(4-((3-chloro-5-(4-chlorophenyl)isothiazol-4-yl)methoxy)-2,3-difluorophenyl)propan-1-ol] was tested, and the “C57 OGTT 3 mg/kg” value (C57b16 mouse) was −32.
Cc1ccc(-c2snc(Cl)c2COc2c(F)cc(CCC(=O)O)c(F)c2F)c(F)c1 [Cpd 107, 3-(4-{[3-Chloro-5-(2-fluoro-4-methylphenyl)isothiazol-4-yl]methoxy}-2,3,5-trifluorophenyl)propanoic acid] gave an EC50 [1] of 118 nM and an EC50 (Human GPR120 short form) of 89 nM.
With CCc1ccc(-c2cc(C(F)(F)F)sc2COc2ccc(CCC(=O)O)c(C)c2C)cc1 [Cpd 250, 3-(4-{[3-(4-Ethylphenyl)-5-(trifluoromethyl)thiophen-2-yl]methoxy}-2,3-dimethylphenyl)propanoic acid] the EC50 (Human GPR120 short form) was 3230 nM.
With O=C(O)CCc1ccc(OCc2c(-c3ccc(Cl)cc3)nsc2C(F)(F)F)c(F)c1F [Cpd 106, 3-(4-[[3-(4-chlorophenyl)-5-(trifluoromethyl)-1,2-thiazol-4-yl]methoxy]-2,3-difluorophenyl)propanoic acid] the “C57 IPGTT 10 mg/kg” value (C57bl/6J Mice) was −34.
With OCCCc1cc(F)c(OCc2c(-c3ccc(Cl)cc3)csc2C(F)(F)F)c(F)c1 [Cpd 46, 3-(4-[[4-(4-chlorophenyl)-2-(trifluoromethyl)thiophen-3-yl]methoxy]-3,5-difluorophenyl)propan-1-ol] the “C57 IPGTT 3 mg/kg” value (C57bl/6J Mice; 3 mg/kg) was −26, the “C57 IPGTT 10 mg/kg” value (C57bl/6J Mice) was −75 and the “C57 OGTT 3 mg/kg” value (C57b16 mouse) was −49.
For O=C(O)CCc1cc(F)c(OCc2c(-c3ccc(Cl)cc3)nsc2C(F)(F)F)c(F)c1 [Cpd 79, 3-(4-[[3-(4-chlorophenyl)-5-(trifluoromethyl)-1,2-thiazol-4-yl]methoxy]-3,5-difluorophenyl)propanoic acid], the “C57 IPGTT 10 mg/kg” value (C57bl/6J Mice) was −60.
CCc1ccc(-c2nsc(C(F)(F)F)c2COc2c(F)ccc(CC(C)CO)c2F)cc1 (centres unmarked) [Cpd 251, 3-(3-{[3-(4-Ethylphenyl)-5-(trifluoromethyl)isothiazol-4-yl]methoxy}-2,4-difluorophenyl)-2-methylpropan-1-ol] gave an EC50 (Human GPR120 short form) greater than 5000 nM.
With CCc1ccc(-c2nsc(C(F)(F)F)c2COc2c(F)cc(CCC(=O)O)cc2F)cc1 [Cpd 70, 3-(4-[[3-(4-ethylphenyl)-5-(trifluoromethyl)-1,2-thiazol-4-yl]methoxy]-3,5-difluorophenyl)propanoic acid] the “C57 IPGTT 30 mg/kg” value (C57bl/6J Mice; 30 mg/kg) was −88.
Cc1ccc(-c2snc(C(C)C)c2COc2c(F)cc(CCC(=O)O)cc2F)c(F)c1 [Cpd 191] was tested, and the EC50 (Human GPR120 short form) was 323 nM.
For CC(C)Oc1cc(C(F)(F)F)sc1COc1c(F)cc(CCC(=O)O)cc1F [Cpd 16, 3-(3,5-Difluoro-4-{[3-(1-methylethoxy)-5-(trifluoromethyl)thiophen-2-yl]methoxy}phenyl)propanoic acid], the EC50 [1] was 1510 nM and the EC50 (Human GPR120 short form) was 382 nM.
COc1ccc(-c2nsc(C(F)(F)F)c2COc2ccc(CCC(=O)O)c(C)c2C)c(F)c1 [Cpd 120, 3-(4-{[3-(2-Fluoro-4-methoxyphenyl)-5-(trifluoromethyl)isothiazol-4-yl]methoxy}-2,3-dimethylphenyl)propanoic acid] showed an EC50 [1] of 310 nM and an EC50 (Human GPR120 short form) of 107 nM.
Cc1c(CCC(=O)O)ccc(OCc2c(C(C)(C)C)nsc2C(F)(F)F)c1C [Cpd 198, 3-(4-{[3-tert-Butyl-5-(trifluoromethyl)isothiazol-4-yl]methoxy}-2,3-dimethylphenyl)propanoic acid] gave an EC50 [1] of 1940 nM and an EC50 (Human GPR120 short form) of 405 nM.
